# Measurements as given in US11033518B2, “Pharmaceutical composition containing niclosamide for treating axin-GSK3 interaction-related diseases” (BAOBAB PHARM CO., LTD., priority 2017, dated 2021).
# Assays:
# [1] = target: T1, recombinant GSK3 beta - Axin peptide interaction (Homo sapiens, UniProt P49841); experiment: Competitive binding of FITC-linked 19-mer Axin peptide to recombinant GSK3 (fluorometry); details: 2 hours, Ni-Ti beads
# T1 construct: made in house; host or cells: Sf9 insect cells (GSK3 beta); The peptide was synthesized by Peptron
# T1 sequence (P49841 whole entry): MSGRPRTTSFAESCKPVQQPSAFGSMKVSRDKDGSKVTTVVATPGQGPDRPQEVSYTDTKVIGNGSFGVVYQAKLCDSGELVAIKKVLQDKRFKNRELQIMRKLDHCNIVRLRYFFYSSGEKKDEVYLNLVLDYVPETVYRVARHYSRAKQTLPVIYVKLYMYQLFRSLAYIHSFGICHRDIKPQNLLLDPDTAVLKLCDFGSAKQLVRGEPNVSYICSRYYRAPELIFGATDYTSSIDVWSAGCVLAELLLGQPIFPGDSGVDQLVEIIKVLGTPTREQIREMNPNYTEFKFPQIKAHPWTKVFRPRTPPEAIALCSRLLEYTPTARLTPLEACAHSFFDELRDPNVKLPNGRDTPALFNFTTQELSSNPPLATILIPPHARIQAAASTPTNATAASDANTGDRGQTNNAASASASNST
# Source text: Since it was disclosed that the hydrophobic residues of alpha helix of Axin were accumulated to the hydrophobic groove formed by the C-terminal loop of GSK3, in the result of structural analysis of Axin-GSK3 binding announced in the past (Dajani R et al., EMBO J. 22:494-501, 2003), the present inventors hypothesized that niclosamide binds to the hydrophobic groove of GSK3 and interferes with the function of Axin, and in order to confirm it, they designed in vitro analysis to confirm competitive inhibition by niclosamide of recombinant GSK3 which binds to a 19-mer FITC-linked Axin peptide.
# His-tagged recombinant GSK3 beta was obtained from sf9 insect cells by the known method (Lee D G, et al. Nat Commun. 5:4423, 2014). The FITC-linked 19-mer Axin peptide known to bind to GSK3 as amphipathic alpha-helix (Axin1, 383-401, VEPQKFAEELIHRLEAVQR) was chemically synthesized (Peptron). In order to confirm competitive binding of the synthesized Axin peptide and niclosamide, His-tagged recombinant GSK3 and […] were treated with niclosamide for 2 hours, and were washed with PBS 3 times and then quantitative fluorometry was performed using […]. The fluorescence strength was shown in proportion to the fluorescence strength obtained in the negative control group from 3 times of experiments.
# [2] = system: GSK3, β-catenin and Snail; experiment: Immunoblotting of nucleo-cytoplasm fractions of colorectal cancer cells; assay type: cell-based; details: 0.25 nM, 24 hours, HCT116, SW480 and DLD-1
# Protocol: After treating niclosamide of 0.25 nM to colorectal cancer cell lines HCT116, SW480 and DLD-1 cells for 24 hours, the amount of GSK3, β-catenin and Snail of nucleo-cytoplasm fractions was analyzed by immunoblotting.
# The amount of Snail and GSK3 protein in cells was confirmed by separating nuclei and cytoplasm in the hypotonic solution (Kim N H, et al., Sci Signal. 4:ra71, 2011; Yook J I, et al. Nat Cell Biol., 8:[…], 2006). Briefly, after collecting colorectal cancer cells (1×10^6 cells) in a centrifugation tube, they were washed with PBS and were treated with the hypotonic solution (10 mM HEPES, pH7.9; 10 mM KCl; 1 mM DTT with protease inhibitors) 400 μl on ice for 5 minutes. The cell membrane was degraded by addition of 10% NP-40, and the final concentration was adjusted to 0.6% final concentration, and then was mixed well and high-speed centrifugation was conducted for 30 seconds. The cytoplasmic resolvents were separated and nuclear precipitates were washed with cold PBS twice. The nucleoprotein was extracted by treating hypertonic buffer (20 mM HEPES, pH7.9; 0.4 M NaCl; 1 mM DTT with protease inhibitors) on ice for 15 minutes, and then high-speed centrifugation was conducted, and the amount of GSK3, β-catenin and Snail of nucleo-cytoplasm fractions was analyzed by immunoblotting.
# beta-catenin (β-catenin) = experiment: beta-catenin western blot in colorectal cancer cells; assay type: cell-based; details: 0, 0.125, 0.25, 0.5 nM, 24 hours; as concentration increased
# Protocol: At first, after treating niclosamide of nM units at concentrations of 0 nM, 0.125 nM, 0.25 nM and 0.5 nM to colorectal cancer cells for 24 hours, the beta-catenin (β-catenin) activity and TCF/LEF reporter (Topflash) activity of colorectal cancer cells were measured.
# For beta-catenin, western blot was performed using β-catenin (#610154, BD Transduction, 1:5,000) antibody, and as a result, as shown in B (left) of FIG. 1, expression of beta-catenin in colorectal cancer cells was reduced as the concentration of treated niclosamide was increased.
# Snail, E-cadherin = experiment: Snail western blot and E-cadherin dual luciferase assay in colorectal cancer cells; assay type: cell-based; details: as concentration increased
# Source text: In order to confirm whether niclosamide induced snail-mediated EMT recovery, beta-catenin (β-catenin) expression and TCF/LEF reporter (Topflash) activity change, and Snail and E-cadherin protein expression were confirmed.
# Through the western blot, Snail expression change was confirmed, and through the dual luciferase assay system, the expression of E-cadherin protein was confirmed.
# [3] = target: Helicobacter pylori CagA - GSK3 binding (Homo sapiens, UniProt P49841); experiment: Immunoprecipitation of CagA and GSK3; details: various amounts
# Sequence of Helicobacter pylori CagA - GSK3 binding (P49841 whole entry): as above
# Source text: (§1) In view of the results of Examples 2˜5 that niclosamide inhibited Wnt activity and EMT through Axin-GSK3 inhibition, and that CagA of Helicobacter (Helicobacter pylori) bound to GSK-3 similarly to Axin, the effect of GSK-3 binding and Snail induction by CagA of Helicobacter pylori by niclosamide was confirmed. It was confirmed that binding of CagA and GSK3 was inhibited by niclosamide similarly to Axin 2, when examining with immunoprecipitation after adding various amounts of niclosamide to this sample (FIG. 10A). In addition, it could be seen that Snail expression by CagA was inhibited when treating niclosamide after inducing CagA and Snail expression in the 293 cell (FIG. 10B). Through such a result, it could be seen that niclosamide inhibited the function of CagA performing function similar to Axin and thereby inhibited gastric cancer occurrence and inflammation by Helicobacter.
# intestinal adenoma = experiment: Adenoma formation in APC-MIN mice model; assay type: in vivo
# Protocol: In addition, in order to confirm the therapeutic effect of niclosamide in vivo, the effect of niclosamide affecting on adenoma formation in APC-MIN (multiple intestinal neoplasia, APCΔ850) mice model was confirmed.
# APC-MIN mice were prepared by crossbreeding of wild-type C57BL/6J (APC+/+) females and MIN C57BL/6J (APCMin/+) males, and APC-MIN descendants were randomly assigned in subgroups at 3 weeks age by identifying with PCR-based assay. A vehicle or niclosamide (50 mg/kg) was intraperitoneally injected daily (6 days/week), and mice were observed daily, and the weight was measured twice a week. After the end of 14 weeks, mice were sacrificed and the whole intestine was collected and intestinal flakes were opened longitudinally with scissors, and were washed with saline and were unfolded, and then tissues were obtained. The tissues were fixed with 10% formalin for 24 hours and were washed with 70% alcohol. The fixed intestinal tissues were observed using a stereomicroscope, and the size of adenoma (small, <1 mm; medium 1˜3 mm; large >3 mm) was discriminated and counted for each mouse. In case of oral administration, APC-MIN mice ingested niclosamide mixed with 15% sugar gel vehicle daily (6 days/week) for 14 weeks. The number and size of adenoma were measured with a stereomicroscope.
# Snail expression by CagA = experiment: Snail expression induced by CagA in the 293 cell; assay type: cell-based
# Source text: as §1
# [4] = orally administered for 14 weeks
smiles,measurement,setting,value
O=C(Nc1ccc([N+](=O)[O-])cc1Cl)c1cc(Cl)ccc1O [niclosamide],interaction between recombinant GSK3 and synthesized Axin peptide,[1],inhibited in proportion to the administration concentration
same,GSK3 of nuclei,[2],increased
same,amount of Snail,[2],reduced
same,amount of beta-catenin,[2],reduced
same,expression of beta-catenin,beta-catenin (β-catenin),reduced
same,E-cadherin (promoter activity),"Snail, E-cadherin; dual luciferase assay",increased
same,expression of Snail,"Snail, E-cadherin; western blot",reduced
same,binding of CagA and GSK3,[3],inhibited
same,body weight,"intestinal adenoma; intraperitoneal 50 mg/kg daily, 14 weeks",did not change
same,intestinal adenoma,"intestinal adenoma; intraperitoneal 50 mg/kg daily, at 14 weeks",significantly reduced
same,condition of experimental animal,intestinal adenoma; [4],stable during the drug treatment
same,intestinal adenoma formation,intestinal adenoma; [4],significantly inhibited
same,Snail expression by CagA,Snail expression by CagA,inhibited
